According to US20120058133A1, “INHIBITION OF TRNA SYNTHETASES AND THERAPEUTIC APPLICATIONS THEREOF” (President and Fellows of Harvard College, priority 2009, published 2012):

Tested on: murine CD4+ CD25− T cells, CD8+ T cells, B cells
Experiment: T and B cell activation, proliferation, cytokine production and Th1/Th2/iTreg differentiation
Type: cell-based, mouse
Method: FIG. 2A, Left, is a graph showing dose response analyses performed on activated carboxyfluorescein succinimidyl ester (CFSE)-labeled CD4^+CD25^− T cells in the presence of DMSO, 40 nM MAZ1310, or increasing concentrations of halofuginone (HF) (1.25-40 nM). CFSE dilution and cell surface CD25 expression were determined 48 hours after activation. Intracellular cytokine production was determined on day 4 or 5 following restimulation with phorbol myristate acetate (PMA) and ionomycin. […] FIG. 2A, Right is a graph showing dose-response analyses of HF effects on CD8^+ T cell or B cell function. Cells were activated in the presence of DMSO, 40 nM MAZ1310, or increasing concentrations of HF (1.25-40 nM). CFSE dilution, cell surface CD25 expression, and intracellular cytokine production were determined as above 2-5 days after activation.
At approximately 10-fold higher concentrations (>20 nM), HF induced a general inhibition of T and B cell activation, proliferation, and effector function (FIG. 2A, 2B).
Purified CD4^+ CD25^− T cells were activated in vitro as previously described (Djuretic et al., Nat. Immunol. 8:145, 2007) using 0.3 μg/ml hamster anti-mouse CD3 (clone 145-2C11) (ATCC—Manassas, Va.) and 0.5 μg/ml hamster anti-mouse CD28 (BD Pharmingen—San Jose, Calif.). Activated cell cultures were differentiated using the following combinations of cytokines and antibodies: iTreg-recombinant human TGFβ1 (3 ng/ml—R&D systems, Minneapolis, Minn.), Th17-TGFβ1 (3 ng/ml) plus recombinant mouse IL-6 (30 ng/ml—R&D systems). Th1 and Th2 differentiation was performed as previously described (Djuretic et al., Nat. Immunol. 8:145, 2007). Human IL-2 supernatant (National Cancer Institute) was used in culture at 0.01 U/ml and was added at 48 hours-post activation when T cells were split into tissue culture wells lacking CD3 and CD28 antibodies, with the exception of Th17 cultures that were maintained in the absence of exogenous IL-2. CD8^+ T cells were activated with 1 μg/ml anti-CD3 and 1 μg/ml anti-CD28 and were expanded in 0.1 U/ml IL-2 until day 6 post activation. CD43-depleted B cells were activated in vitro by culturing with 25 μg/ml LPS (Sigma—St. Louis, Mo.) for 3-4 days in the presence or absence of TGFβ. All reagents (see below) were added at the time of T cell activation and again at 48 hours post activation unless indicated otherwise. For some experiments, purified CD4^+ CD25^− T cells, CD8^+ T cells or B cells were labeled with 1 μM CFSE (Invitrogen) prior to activation in accordance with manufacturer's instructions. Human T cell activation was performed by plating purified monocytes in a 96-well flat bottom plate at a concentration of 2×10^4 cells per well in complete medium overnight. 10^5 purified human memory T cells were added to monocyte cultures in the presence of soluble anti-CD3/anti-CD28 beads (Dynabeads, Invitrogen). T cells were expanded in the presence HF or MAZ1310 for up to 6 days.
Cytokines secreted into media supernatant were measured using the mouse Th1/Th2 cytometric bead array (CBA—BD Pharmingen) in accordance with manufacturers instructions. Briefly, CD4+ CD25− T cells were activated in anti-CD3/anti-CD28-coated tissue culture wells (see above) and supernatants were collected at the indicated times.
For detection of intracellular cytokines in murine cells, cultured T or B cells were stimulated with 10 nM PMA (Sigma) and […] (Sigma) for 4-5 hours in the presence of […] brefeldin A (Sigma). Stimulated cells were harvested, washed with PBS and fixed with PBS plus 4% paraformaldehyde at room temperature for 20 minutes. Cells were then washed with PBS, permeabilized with PBS supplemented with 1% BSA and 0.5% saponin (Sigma) at room temperature for 10 minutes before cytokine-specific antibodies were added and incubated with cells for an additional 20 minutes at room temperature. […]

[1] = low concentrations of HF (1-10 nM)

tunicamycin
Th1 and Th2 differentiation (low concentrations of tunicamycin): preferentially impaired Th1 and Th2 differentiation

O=C(CC1NCCCC1O)Cn1cnc2cc(Br)c(Cl)cc2c1=O (racemic) [HF, halofuginone]
concentration inducing general inhibition of T and B cell activation, proliferation, and effector function: > 20 nM | CD25 upregulation [1]: did not affect | T cell proliferation [1]: did not affect | production of IL-2, TNF, or IFNγ [1]: did not affect | Th1, Th2 or iTreg differentiation (IFNγ, IL-4, or Foxp3 expression) (low-dose HF): failed to modulate
